Here are results for 19 compounds from US20100222396A1 (Novartis AG, priority 2009, published 2010).

For assay [1], the target named is T1, human orexin 1 receptor (hOx1R) (Homo sapiens, UniProt O43613).
T1 construct: expressed in transfected cells
T1 sequence (O43613 1-425): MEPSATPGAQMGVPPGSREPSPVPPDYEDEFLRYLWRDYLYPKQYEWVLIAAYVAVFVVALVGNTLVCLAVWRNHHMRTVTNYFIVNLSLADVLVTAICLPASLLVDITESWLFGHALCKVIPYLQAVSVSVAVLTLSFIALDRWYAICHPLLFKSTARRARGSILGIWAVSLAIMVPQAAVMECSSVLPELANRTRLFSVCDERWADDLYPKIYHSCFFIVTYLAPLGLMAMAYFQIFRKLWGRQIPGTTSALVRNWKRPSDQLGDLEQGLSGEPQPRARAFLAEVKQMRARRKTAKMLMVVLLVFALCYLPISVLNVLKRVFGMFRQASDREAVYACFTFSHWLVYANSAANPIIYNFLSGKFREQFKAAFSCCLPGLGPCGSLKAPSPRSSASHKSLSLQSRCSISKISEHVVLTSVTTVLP
Nature of the assay: Radioligand binding assay ([125I]orexin A competition), hOx1R. As to conditions: CHO or HEK cell membranes, 1 h room temperature. The method in brief:
(§1)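 Membranes from CHO or HEK cells expressing the human receptor, incubated 1 h at room temperature with […] [125I]orexin A and compound in HEPES pH 7.5 buffer with BSA, MgCl2, CaCl2 and tween.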

Assay [2] deals with T1, human orexin 1 receptor (hOx1R). Nature of the assay: Calcium accumulation in cells (FLIPR), antagonism of orexin A, hOx1R. The conditions noted are these: for pKd: cells expressing human orexin 1 receptor, IC50 vs orexin A converted by Cheng and Prusoff correction; for inhibition at 10 µM: measured at a concentration of 10 μM of compound (cells marked ^a). Format: cell-based. The method in brief:
(§2)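 Serum-starved receptor-expressing cells were loaded with Fluo-4-AM (2 μM) plus probenecid (0.1 mM) in HEPES buffer, pH 7.4, with 1% BSA, and Ca2+ fluorescence was read on FLIPR. Compounds (10^−9–10^−5 M) were added first, and orexin A was added one hour later to measure antagonism.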

The target in assay [3] is T2, human orexin 2 receptor (hOx2R) (Homo sapiens, UniProt O43614).
T2 construct: expressed in transfected cells
T2 sequence (O43614 1-444): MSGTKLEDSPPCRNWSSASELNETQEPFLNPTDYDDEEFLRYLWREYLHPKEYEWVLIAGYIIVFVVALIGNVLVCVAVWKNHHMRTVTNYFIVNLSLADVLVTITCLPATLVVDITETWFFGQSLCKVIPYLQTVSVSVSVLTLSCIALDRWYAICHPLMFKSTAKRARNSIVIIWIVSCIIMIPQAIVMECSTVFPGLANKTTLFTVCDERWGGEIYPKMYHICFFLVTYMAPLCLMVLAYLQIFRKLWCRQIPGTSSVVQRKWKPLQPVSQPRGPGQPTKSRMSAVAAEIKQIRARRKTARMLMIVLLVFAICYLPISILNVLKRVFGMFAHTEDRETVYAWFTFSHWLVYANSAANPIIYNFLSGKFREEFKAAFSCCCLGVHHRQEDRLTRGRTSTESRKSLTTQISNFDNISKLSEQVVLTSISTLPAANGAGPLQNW
Nature of the assay: Calcium accumulation in cells (FLIPR), antagonism of orexin A, hOx2R. The format is cell-based. As to conditions: for pKd: cells expressing human orexin 2 receptor, IC50 vs orexin A converted by Cheng and Prusoff correction; for inhibition at 10 µM: measured at a concentration of 10 μM of compound (cells marked ^a). The method in brief: as §2

For assay [4], the target named is T2, human orexin 2 receptor (hOx2R). Kind of assay: Radioligand binding assay ([125I]orexin A competition), hOx2R. As to conditions: CHO or HEK cell membranes, 1 h room temperature. The method in brief: as §1

Molecules are shown by their SMILES. pKd: −log10 of the molar value.

Turning to `CN(C(=O)c1ccc2cc[nH]c2c1)[C@H](CCNC(=O)c1ccccn1)Cc1ccccc1` [Example 64, 1H-Indole-6-carboxylic acid {(S)-1-benzyl-3-[(pyridine-2-carbonyl)-amino]-propyl}-methyl-amide], the negative logarithm of the Kd (pKd) – broadly, −log10 of the Kd, conventionally taken in molar units – was 6.27 in assay [1], 6.00 in assay [2], 5.97 in assay [3] and 5.16 in assay [4].

With `CN(C(=O)c1ccccc1)[C@H](CCNC(=O)c1ccccn1)Cc1ccccc1` [Example 37, Pyridine-2-carboxylic acid [(S)-3-(benzoyl-methyl-amino)-4-phenyl-butyl]-amide], the pKd was 6.45 in assay [1], 6.08 in assay [2], 6.36 in assay [3] and 6.32 in assay [4].

On to `COc1ccc(C(=O)N(C)[C@H](CCNC(=O)c2ccccn2)Cc2ccccc2)cc1OC` [Example 9, Pyridine-2-carboxylic acid {(S)-3-[(3,4-dimethoxy-benzoyl)-methyl-amino]-4-phenyl-butyl}-amide], for which the pKd in assay [1] is 6.32; in assay [2] it was 5.85; in assay [3], 6.84; in assay [4] it was 7.34.

For the compound `CCCN(C(=O)c1cc(C(F)(F)F)cc(C(F)(F)F)c1)[C@H](CCNC(=O)c1ccccn1)Cc1ccccc1` [Example 22, Pyridine-2-carboxylic acid {(S)-3-[(3,5-bis-trifluoromethyl-benzoyl)-propyl-amino]-4-phenyl-butyl}-amide], the pKd in assay [1] was less than 5.00; in assay [2], 5.80; in assay [3], 6.98; in assay [4], 6.67.

On to `CN(C(=O)c1cccc(Br)c1)[C@H](CCNC(=O)c1nc2ccccc2n1C)Cc1ccccc1` [Example 102, 1-Methyl-1H-benzoimidazole-2-carboxylic acid {(S)-3-[(3-bromo-benzoyl)-methyl-amino]-4-phenyl-butyl}-amide], for which the negative-log Kd (pKd) in assay [1] is 7.55; in assay [2] it was 7.74; in assay [3], 9.00; in assay [4], 8.70.

As for `CN(C(=O)c1cccc(OC(F)(F)F)c1)[C@H](CCNC(=O)c1cccn1C)Cc1ccccc1` [Example 123, 1-Methyl-1H-pyrrole-2-carboxylic acid {(S)-3-[methyl-(3-trifluoromethoxy-benzoyl)-amino]-4-phenyl-butyl}-amide], the negative-log Kd (pKd) in assay [1] was 5.80; in assay [2], 6.06; in assay [3], 8.15; in assay [4] it was 7.52.

On to `CCOc1cc(OCC)cc(C(=O)N(C)[C@H](CCNC(=O)c2cccn2C)Cc2ccccc2)c1` [Example 122, 1-Methyl-1H-pyrrole-2-carboxylic acid {(S)-3-[(3,5-diethoxy-benzoyl)-methyl-amino]-4-phenyl-butyl}-amide], for which the negative logarithm of the Kd (pKd) in assay [1] was 6.48; in assay [2], 6.11; in assay [3], 7.62; in assay [4], 7.68.

Turning to `COc1cccc(C(=O)N(C)[C@H](CCNC(=O)c2ccccn2)Cc2ccccc2)c1` [Example 52, Pyridine-2-carboxylic acid {(S)-3-[(3-methoxy-benzoyl)-methyl-amino]-4-phenyl-butyl}-amide], the negative-log Kd (pKd) in assay [1] is 5.62; in assay [2], 6.33; in assay [3] it was 6.04; in assay [4], 6.02.

Regarding `CCCN(C(=O)c1ccc2c(c1)OCO2)[C@H](CCNC(=O)c1ccccn1)Cc1ccccc1` [Example 13, Pyridine-2-carboxylic acid {(S)-3-[(benzo[1,3]dioxole-5-carbonyl)-propyl-amino]-4-phenyl-butyl}-amide], the negative logarithm of the Kd (pKd) in assay [1] is 6.09; in assay [2] it was 5.66; in assay [3], 7.13; in assay [4] it was 6.97.

As for `CN(C(=O)c1cccc2c1OCO2)[C@H](CCNC(=O)c1nc2ccccc2n1C)Cc1ccc(F)cc1` [Example 56, 1-Methyl-1H-benzoimidazole-2-carboxylic acid [(S)-3-[(benzo[1,3]dioxole-4-carbonyl)-methyl-amino]-4-(4-fluoro-phenyl)-butyl]-amide], the pKd in assay [1] is less than 5.00; in assay [4] it was 5.57. Also, the inhibition – broadly, the percentage by which the read-out fell short of the control – at 10 µM in assay [2] is 1%; in assay [3], 35%.

Take `CN(C(=O)c1ccc2ccccc2c1)[C@H](CCNC(=O)c1nc2ccccc2n1C)Cc1ccc(F)cc1` [Example 57, 1-Methyl-1H-benzoimidazole-2-carboxylic acid {(S)-4-(4-fluoro-phenyl)-3-[methyl-(naphthalene-2-carbonyl)-amino]-butyl}-amide]: the pKd was 6.35 in assay [1], 7.92 in assay [2], 7.59 in assay [3] and 5.55 in assay [4].

For the compound `CN(C(=O)c1cccc(C(F)(F)F)c1)[C@H](CCNC(=O)c1ccccn1)Cc1ccccc1` [Example 4, Pyridine-2-carboxylic acid {(S)-3-[methyl-(3-trifluoromethyl-benzoyl)-amino]-4-phenyl-butyl}-amide], the pKd in assay [1] was 6.95; in assay [2] it was 6.76; in assay [3], 7.36; in assay [4], 7.85.

As to `CN(C(=O)c1cccc2c1OCO2)[C@H](CCNC(=O)c1ccccn1)Cc1ccc(F)cc1` [Example 63, Pyridine-2-carboxylic acid [(S)-3-[(benzo[1,3]dioxole-4-carbonyl)-methyl-amino]-4-(4-fluoro-phenyl)-butyl]-amide], the pKd is less than 5.00 in assay [1] and 5.23 in assay [4]. Besides, the inhibition at 10 µM in assay [2] worked out at 0%; in assay [3] it was 24%.

For the compound `CN(C(=O)c1ccc2c(c1)OCO2)[C@H](CCNC(=O)c1cc2ccccc2n1C)Cc1ccccc1` [Example 75, 1-Methyl-1H-indole-2-carboxylic acid {(S)-3-[(benzo[1,3]dioxole-5-carbonyl)-methyl-amino]-4-phenyl-butyl}-amide], the negative logarithm of the Kd (pKd) in assay [1] is 6.15; in assay [2], 6.57; in assay [3] it was 7.51; in assay [4], 6.33.

Consider `Cc1cccc(C(=O)N(C)[C@H](CCNC(=O)c2cccn2C)Cc2ccccc2)c1` [Example 119, 1-Methyl-1H-pyrrole-2-carboxylic acid {(8)-3-[methyl-(3-methyl-benzoyl)-amino]-4-phenyl-butyl}-amide], for which the negative-log Kd (pKd) is 6.60 in assay [1], 6.27 in assay [2], 8.40 in assay [3] and 7.85 in assay [4].

Take `CN(C(=O)c1ccccc1)[C@H](CCNC(=O)c1nc2ccccc2n1C)Cc1ccccc1` [Example 48, 1-Methyl-1H-benzoimidazole-2-carboxylic acid [(S)-3-(benzoyl-methyl-amino)-4-phenyl-butyl]-amide]: the pKd in assay [1] is 5.55; in assay [2] it was 6.06; in assay [3] it was 7.08; in assay [4], 6.03.

As to `CN(C(=O)c1cc(F)cc(F)c1)[C@H](CCNC(=O)c1ccccn1)Cc1ccccc1` [Example 34, Pyridine-2-carboxylic acid {(S)-3-[(3,5-difluoro-benzoyl)-methyl-amino]-4-phenyl-butyl}-amide], the pKd in assay [1] was 6.60; in assay [2], 6.14; in assay [3], 6.25; in assay [4] it was 6.33.

Turning to `Cc1nc2sccn2c1C(=O)NCC[C@H](Cc1ccccc1)N(C)C(=O)c1ccccc1` [Example 33, 6-Methyl-imidazo[2,1-b]thiazole-5-carboxylic acid [(S)-3-(benzoyl-methyl-amino)-4-phenyl-butyl]-amide], the pKd is 5.24 in assay [1], 5.71 in assay [2], 7.12 in assay [3] and 6.35 in assay [4].

Turning to `CN(C(=O)c1ccc2c(ccn2C)c1)[C@H](CCNC(=O)c1ccccn1)Cc1ccccc1` [Example 84, 1-Methyl-1H-indole-5-carboxylic acid {(S)-1-benzyl-3-[(pyridine-2-carbonyl)-amino]-propyl}-methyl-amide], the pKd in assay [1] was 7.52; in assay [2], 7.30; in assay [3], 6.09; in assay [4] it was 5.88.
